In brackets after ≈: the same amount, converted by molar mass.
Tests used:
[1] = Volume of distribution at steady state in Sprague-Dawley rat at 0.5 mg/kg, iv; assay type: ADME, organism-based; design: dose 0.5 mg/kg, route intravenous; conditions: in vivo, read-out: Vdss
[2] = Stability in rat liver microsomes assessed as compound remaining after 30 mins; assay type: ADME; conditions: read-out: Stability
[3] = Oral bioavailability in Sprague-Dawley rat at 1 mg/kg; assay type: ADME, organism-based; conditions: in vivo
[4] = Thermodynamic solubility of the compound in buffer containing 20 mmol/L of sodium taurocholate at pH 6.8; assay type: physicochemical; conditions: buffer containing 20 mmol/L sodium taurocholate, read-out: Therm_solubility
[5] = Plasma clearance in Sprague-Dawley rat at 0.5 mg/kg, iv; assay type: ADME, organism-based; design: dose 0.5 mg/kg, route intravenous
[6] = Cmax in Sprague-Dawley rat at 1 mg/kg, po; assay type: ADME, organism-based; design: dose 1 mg/kg, route oral; conditions: in vivo
[7] = AUC in Sprague-Dawley rat at 1 mg/kg, po; assay type: ADME, organism-based; design: dose 1 mg/kg, route oral; conditions: plasma
cells [8] = conditions: Homo sapiens, Lu116, 72 h
Description: Antiproliferative activity against human Lu116 cells after 72 hrs by WST8 assay

NCI-H460 [9] = test: cells; conditions: Homo sapiens, NCI-H460, 72 h
Description: Antiproliferative activity against human NCI-H460 cells after 72 hrs by WST8 assay

MRC5 = test: Antiproliferative activity against human MRC5 cells after 72 hrs by WST8 assay; assay type: cell-based; conditions: MRC5, 72 h
cells [10] = conditions: Homo sapiens, HCT-116, 72 h
Description: Antiproliferative activity against human HCT116 cells after 72 hrs by WST8 assay

cells [11] = conditions: Homo sapiens, GSS, 72 h
Description: Antiproliferative activity against human GSS cells after 72 hrs by WST8 assay

cells [12] = conditions: Homo sapiens, LU-99A, 72 h
Description: Antiproliferative activity against human LU99A cells after 72 hrs by WST8 assay

cells [13] = conditions: Homo sapiens, HCT-15, 72 h
Description: Antiproliferative activity against human HCT15 cells after 72 hrs by WST8 assay

cells [14] = conditions: Homo sapiens, MKN-45, 72 h
Description: Antiproliferative activity against human MKN45 cells after 72 hrs by WST8 assay

cells [15] = conditions: Homo sapiens, LC-2-ad, 72 h
Description: Antiproliferative activity against human LC2/ad cells after 72 hrs by WST8 assay

cells [16] = conditions: Homo sapiens, HL-60, 72 h
Description: Antiproliferative activity against human HL60 cells after 72 hrs by WST8 assay

HT-29 = test: cells; conditions: Homo sapiens, HT-29, 72 h
Description: Antiproliferative activity against human HT-29 cells after 72 hrs by WST8 assay

NCI-H358 = test: Antiproliferative activity against human NCI-H358 cells after 72 hrs by WST8 assay; assay type: functional, cell-based; conditions: NCI-H358, 72 h
cells [17] = conditions: Homo sapiens, PC-14, 72 h
Description: Antiproliferative activity against human PC14 cells after 72 hrs by WST8 assay

cells [18] = conditions: Homo sapiens, MIA PaCa-2, 72 h
Description: Antiproliferative activity against human MIAPaCa2 cells after 72 hrs by WST8 assay

NCI-H460 [19] = test: Antitumor activity against human NCI-H460 cells xenografted in nude mouse assessed as tumor growth inhibition at 2.5 mg/kg, po qd for 2 weeks relative to control; assay type: functional
Plasma = test: Fraction unbound in rat plasma; assay type: ADME, cell-free
[20] = Cmax in BALB/c AJcl-nu/nu mouse at 100 mg/kg, po; assay type: ADME, organism-based; design: dose 100 mg/kg, route oral; conditions: in vivo
[21] = AUC in BALB/c AJcl-nu/nu mouse at 100 mg/kg, po; assay type: ADME, organism-based; design: dose 100 mg/kg, route oral; conditions: plasma
Mus musculus [22] = test: Toxicity in human NCI-H460 cells xenografted nude mouse assessed as body weight loss at 10 mg/kg, po qd for 2 weeks relative to control; assay type: organism-based; design: dose 10 mg/kg, route oral; conditions: in vivo, 336 h
Mus musculus [23] = test: Toxicity in human NCI-H460 cells xenografted nude mouse assessed as body weight loss at 2.5 mg/kg, po qd for 2 weeks relative to control; assay type: organism-based; design: dose 2.5 mg/kg, route oral; conditions: in vivo, 336 h
NCI-H460 [24] = test: Antitumor activity against human NCI-H460 cells xenografted in nude mouse assessed as tumor growth inhibition at 10 mg/kg, po qd for 2 weeks relative to control; assay type: functional
Mus musculus [25] = test: Toxicity in human NCI-H460 cells xenografted nude mouse assessed as body weight loss at 5 mg/kg, po qd for 2 weeks relative to control; assay type: organism-based; design: dose 5 mg/kg, route oral; conditions: in vivo, 336 h
[26] = Tmax in BALB/c AJcl-nu/nu mouse at 100 mg/kg, po; assay type: ADME, organism-based; design: dose 100 mg/kg, route oral; conditions: in vivo
[27] = AUC in BALB/c AJcl-nu/nu mouse at 10 mg/kg, po; assay type: ADME, organism-based; design: dose 10 mg/kg, route oral; conditions: plasma
NCI-H460 [28] = test: Antitumor activity against human NCI-H460 cells xenografted in nude mouse assessed as tumor growth inhibition at 5 mg/kg, po qd for 2 weeks relative to control; assay type: functional
[29] = Tmax in BALB/c AJcl-nu/nu mouse at 10 mg/kg, po; assay type: ADME, organism-based; design: dose 10 mg/kg, route oral; conditions: in vivo
[30] = Cmax in BALB/c AJcl-nu/nu mouse at 10 mg/kg, po; assay type: ADME, organism-based; design: dose 10 mg/kg, route oral; conditions: in vivo
Mus musculus [31] = test: Toxicity in human NCI-H460 cells xenografted nude mouse assessed as mortality at 5 to 10 mg/kg, po qd for 2 weeks relative to control; assay type: organism-based; design: dose 5-10 mg/kg, route oral; conditions: in vivo, 336 h
A549 = test: cells; conditions: Homo sapiens, A549, 72 h

| SMILES | Vd [1] | remaining at 0.5 h [2] | bioavailability [3] | solubility thermodynamic [4] | clearance [5] | Cmax [6] | AUC [7] | also measured |
| --- | --- | --- | --- | --- | --- | --- | --- | --- |
| O=C(NC1CC1)c1ccc(-c2cnc3c(NCC4CCOCC4)cc(Oc4ccccc4O)nn23)cc1 | 2.2 L/kg | 21% | 0% | 1.3 µg/mL (≈ 2.6 µM) | 78 mL/min/kg | – | – | – |
| O=C(NC1CC1)c1ccc(-c2cnc3c(NCC4CCOCC4)cc(Oc4ccccc4F)nn23)cc1 | 2 L/kg | 39% | 16% | 8 µg/mL (≈ 16 µM) | 22 mL/min/kg | 16 ng/mL | 126 ng·h/mL | – |
| N#Cc1ccc(-c2cc(NCC3CCOCC3)c3ncc(-c4ccc(C(=O)NC5CC5)cc4)n3n2)cc1 | 4.2 L/kg | 42% | 0% | 0.49 µg/mL (≈ 0.995 µM) | 38 mL/min/kg | – | – | – |
| N#Cc1ccc(-c2cc(NCC3CCOCC3)c3ncc(-c4ccc(C(=O)NC5CC5)cc4)n3n2)c(N)c1 | 2 L/kg | 59% | 0% | 2.6 µg/mL (≈ 5.12 µM) | 23 mL/min/kg | – | – | – |
| CC(C)(C)Nc1cc(NCC2CCOCC2)c2ncc(-c3ccc(C(=O)NC4CC4)cc3)n2n1 | 1.7 L/kg | 59% | 36% | 63 µg/mL (≈ 136 µM) | 16 mL/min/kg | 50 ng/mL | 377 ng·h/mL | – |
| O=C(NC1CC1)c1ccc(-c2cnc3c(NCC4CCOCC4)cc(OC4CCCCC4)nn23)cc1 | 1.6 L/kg | 55% | 23% | 10 µg/mL (≈ 20.4 µM) | 8.7 mL/min/kg | 33 ng/mL | 439 ng·h/mL | – |
| CC(=O)O[C@H]1C(=O)[C@@]2(C)[C@H]([C@H](OC(=O)c3ccccc3)[C@]3(O)C[C@H](OC(=O)[C@H](O)[C@@H](NC(=O)c4ccccc4)c4ccccc4)C(C)=C1C3(C)C)[C@]1(OC(C)=O)CO[C@@H]1C[C@@H]2O [PACLITAXEL] | – | – | – | – | – | – | – | IC50 (cells [8]): 5.1 nM; IC50 (NCI-H460 [9]): 10 nM; IC50 (MRC5): 80 nM; IC50 (cells [10]): 6.1 nM; IC50 (cells [11]): 3.4 nM; IC50 (cells [12]): 5.2 nM; IC50 (cells [13]): 240 nM; IC50 (cells [14]): 4 nM; IC50 (cells [15]): 2.5 nM; IC50 (cells [16]): 7.9 nM; IC50 (HT-29): 7 nM; IC50 (NCI-H358): 7.9 nM; IC50 (cells [17]): 4.4 nM; IC50 (cells [18]): 6.1 nM |
| CC(C)(Nc1cc(NCC2CCOCC2)c2ncc(-c3ccc(C(=O)NC4CC4)cc3)n2n1)C(F)(F)F | 1.3 L/kg | 41% | 24% | 29 µg/mL (≈ 56.1 µM) | 11 mL/min/kg | 38 ng/mL | 360 ng·h/mL | T/C (NCI-H460 [19]): 57%; Fu (Plasma): 0.51%; Cmax [20]: 14000 ng/mL; AUC [21]: 48500 ng·h/mL; Activity (Mus musculus [22]): 32%; Activity (Mus musculus [23]): Non-toxic; T/C (NCI-H460 [24]): 19%; Activity (Mus musculus [25]): 25%; Tmax [26]: 60 min; AUC [27]: 8000 ng·h/mL; T/C (NCI-H460 [28]): 40%; Tmax [29]: 30 min; Cmax [30]: 2430 ng/mL; Activity (Mus musculus [31]): Toxic |
| COc1cc(Nc2ncc3c(n2)-c2ccc(Cl)cc2C(c2c(F)cccc2OC)=NC3)ccc1C(=O)O [ALISERTIB] | – | – | – | – | – | – | – | IC50 (cells [8]): 97 nM; IC50 (MRC5): > 10000 nM; IC50 (cells [10]): 95 nM; IC50 (cells [11]): 39 nM; IC50 (cells [12]): 62 nM; IC50 (cells [13]): 740 nM; IC50 (cells [14]): 93 nM; IC50 (cells [15]): 77 nM; IC50 (cells [16]): 74 nM; IC50 (HT-29): 330 nM; IC50 (NCI-H358): 100 nM; IC50 (cells [17]): 170 nM; IC50 (cells [18]): 130 nM |
| O=C(NC1CC1)c1ccc(-c2cnc3c(NCC4CCOCC4)nccn23)cc1 | – | – | – | – | – | – | – | IC50 (A549): 1500 nM |
| N#Cc1ccc(-c2cn3c(-c4ccc(C(=O)NC5CC5)cc4)cnc3c(NCC3CCOCC3)n2)cc1 | 5 L/kg | 0% | 0% | 1 µg/mL (≈ 2.03 µM) | 145 mL/min/kg | – | – | – |
